Source: patent US11040052B2, “Methods and pharmaceutical compositions for modulating autophagy in a subject in need thereof” (INSERM (INSTITUT NATIONAL DE LA SANTE ET DE LA RECHERCHE …, priority 2013, dated 2021)

Key:
[1] = tested on: U2OS cells stably expressing GFP-LC3; test: Autophagy in cultured cells: GFP-LC3 puncta formation and LC3 lipidation with or without bafilomycin A1; format: cell-based, human; conditions: for autophagic flux (GFP-LC3 puncta formation, LC3 lipidation): cells kept in rich medium, presence and absence of BafA1; for statin-induced autophagy upon supplementation: 12 hours, Simvastatin and Mevastatin
Description: U2OS, HeLa or H4 cells stably expressing GFP-LC3 were seeded in 96-well imaging plates (BD Falcon, Sparks, USA) 24 h before stimulation. Cells were treated with the indicated agents for 4 h. […] Images were analyzed for the presence of GFP-LC3 puncta in the cytoplasm by means of the BD Attovision software (BD Imaging Systems). Cell surfaces were segmented and divided into cytoplasmic and nuclear regions according to manufacturer standard proceedings. RB 2×2 and Marr-Hildreth algorithms were used to recognize cytoplasmic GFP-LC3 positive dots. Statistical analyses were implemented on the R software (http://www.r-project.org/). For quantitative analyses of protein acetylation, cell surfaces were segmented into cytoplasm and nuclei regions, and staining intensity of each individual cell was measured for statistical analysis.
Membranes were then sliced in different parts according to the molecular weight of the protein of interest to allow simultaneous detection of different antigens within the same experiment. Unspecific binding sites were saturated by incubating membranes for 1 h in 0.05% Tween 20 (v:v in TBS) supplemented with 5% non-fat powdered milk (w:v in TBS), followed by the overnight incubation with primary antibodies specific for acetylated-lysine, LC3, phospho-AMPK (Thr172), AMPK, phospho-ribosomal protein S6 kinase (Thr421/Ser424), ribosomal protein S6 kinase, or STQM/p62 (Santa Cruz Biotechnology). Development was performed with appropriate horseradish peroxidase (HRP)-labeled secondary antibodies (Southern Biotech, Birmingham, USA) plus the SuperSignal West Pico chemoluminescent substrate (Thermo Scientific-Pierce). An anti-glyceraldehyde-3-phosphate dehydrogenase antibody (Chemicon International, Temecula, USA) was used to control equal loading of lanes.
For immunoblotting, protein extracts obtained by cellular lysis via RIPA buffer were run on 4-12% Bis-Tris acrylamide (Invitrogen) and electrotransferred to […] PVDF membranes (Biorad, USA). Unspecific binding sites were saturated by incubating membranes for 1 h in 0.05% Tween 20 (v:v in TBS) supplemented with 5% non-fat powdered milk (w:v in TBS), followed by an overnight incubation with primary antibodies specific for, LC3, phospho-AMPK (Thr172), AMPK, phosphor-ACC (Ser79), ACC, phospho-ribosomal protein S6 kinase (Thr421/Ser424), ribosomal protein S6 kinase, or SQSTM/p62 (Abnova). Membranes were opportunely cut in order to allow simultaneous detection of different molecular weight proteins. Development was performed with horseradish peroxidase (HRP)-labeled secondary antibodies (Southern Biotech, Birmingham, USA) plus the SuperSignal West Pico chemo luminescent substrate (Thermo Scientific-Pierce). An anti-glyceraldehyde-3-phosphate dehydrogenase antibody (Abcam) and anti-Actin antibody (Abcam) were used to ensure equal loading of lanes. Quantification was performed by densitometry by means of Image J software.
U2OS and H4 cells stably expressing GFP-LC3 were seeded in 96-well or 384-well imaging plates (BD Falcon, Sparks, USA). 24 h before stimulation, ells were treated with the indicated agents for 6 hours in absence of lysososomal ATPase inhibitors and for 3 hours in presence of Bafilomycin A1. […] Images were analyzed for the detection of GFP-LC3 puncta in the cytoplasm by means of the BD Attovision software (BD Imaging Systems. Cellular regions of interest, cytoplasm and nucleus, were defined and segmented according to standard proceedings. RB 2×2 and Marr-Hildreth algorithms were employed to allow the detection of GFP LC3 puncta. Statistical analyses were conducted using the R and Prism softwares (http://www.r-project.org/). For quantitative analyses of protein acetylation, cell surfaces were segmented intocytoplasmic and nucleic regions, and staining intensity of each individual cell was measured for statistical analysis.

[2] = tested on: MCA205 tumor; test: Growth of transplantable tumors with chemotherapy; format: in vivo, mice; conditions: for tumor growth, combined with MTX: immunocompetent wild type mice, agent given before and with mitoxanthrone
Description: C57BL/6 mice (Charles River Laboratory, Lentilly, France) were bred and maintained according to both the FELASA and the Animal Experimental Ethics Committee Guidelines (Val de Marne, France). Mice were housed in a temperature-controlled environment with 12 h light/dark cycles and received food and water ad libitum. For HC-related experiments, mice were injected intraperitoneally with a single 100 mg/kg dose and 6 h later were sacrificed and tissues were immediately frozen in liquid nitrogen. For DCA- and DMKG-related experiments, mice were subjected to 24 h starvation and injected intraperitoneally each 8 h with a 100 mg/kg of either DCA or DMKG solution prepared in PBS. After 24 h of starvation, mice were sacrificed and tissues were immediately frozen in liquid nitrogen after extraction and homogenized two cycles for 20 s at 5,500 rpm using Precellys 24 tissue homogenator (Bertin Technologies, Montigny-le-Bretonneux, France) in a 20 mM Tris buffer (pH 7.4) containing 150 mM NaCl, 1% Triton X-100, 10 mM EDTA and Complete® protease inhibitor cocktail (Roche Applied Science). Tissue extracts were then centrifuged at 12,000 g at 4° C. and supernatants were collected. Protein concentration in the supernatants was evaluated by the bicinchoninic acid technique (BCA protein assay kit, Pierce Biotechnology, Rockford, Ill.). For hydroxycitrate-related weight-loss experiments, autophagy-deficient Atg4b^−/− mice were used. Atg4b^−/− mice have been previously described (Mariño et al., 2010). For HC-, spermidine-, and resveratrol-related experiments (tumour growth) mice were intraperitoneally injected with respectively 100 mg/kg, 50 mg/kg and 100 mg/kg doses at day 8 and day 9. At day 9, mice were intraperitoneally injected with 2 mg/kg single dose of Mitoxanthrone. For starvation related experiment (tumour growth) mice were treated as previously described (Fabrizio et. al., 2010).
Six weeks old female C57BL/6, Balb/c and nude athymic mice (Harlan Laboratory, Gannat, France) were bred and maintained according to both the FELASA and the Animal Experimental Inserm Ethics Committee Guidelines (project: 2012-69). Mice were housed in a temperature-controlled environment with 12 h light/dark cycles and received food and water ad libitum. For tumor growth experiments, procedures adopted are described as follows: 3×10^5 tumor cells were subcutaneously inoculated; when tumors became palpable (day −1 before chemotherapy), mice were first intraperitoneally injected with 100 mg/kg Potassium Hydroxycitrate, 10 mg/kg Acetylsalicylic Acid, 30 mg/kg SB204990, 30 mg/kg c646, 5 mg/kg Rapamycin, 25 mg/kg Resveratrol, 50 mg/kg Spermidine. At day 0, mice were intraperitoneally injected with the abovementioned compounds and with 5.17 mg/Kg Mitoxanthrone or 5 mg/kg Oxaliplatin. Tumor size was measured every two days. For starvation experiments, mice underwent 48 hour fasting followed by intreperitoneal injection of chemotherapeutics. For autophagy induction study, 6 hours after CRMs administration, mice were sacrificed and tissues were snap-frozen in liquid nitrogen after extraction and homogenized two cycles for 20 s at 5,500 rpm using Precellys 24 tissue homogenator (Bertin Technologies, Montigny-le-Bretonneux, France) in a 20 mM Tris buffer (pH 7.4) containing 150 mM NaCl, 1% Triton X-100, 10 mM EDTA and Complete® protease inhibitor cocktail (Roche Applied Science, Penzberg, Germany). Tissue extracts were then centrifuged at 12,000 g at 4° C. and supernatants were collected. Protein concentration in the supernatants was evaluated by the bicinchoninic acid technique (BCA protein assay kit, Pierce Biotechnology, Rockford, US.

[3] = tested on: AcCoA levels; test: Targeted analysis of AcCoA levels in cultured cells (HPLC-MS); format: cell-based, human; conditions: cells kept in rich medium
Description: Cells were trypsinized, pelleted at 1000 rpm for 4 min, washed with PBS and pelleted again at 1000 rpm for 4 min. Cells were then resuspended in 5 ml of ice-cold hyposmotic buffer and keep on ice for 5 min. Cells were broken to release nuclei using a pre-chilled Dounce homogenizer (20 strokes with a tight pestle) and then were then centrifuged at 228 g.
For in vitro experiments, cell pellets were resuspended in 300 μL of water with HEPES and EDTA (pH 7.4) at 1 mM containing internal standard acetylcoenzyme A (2-C13) at 1 mg/L, vortexed and heated at 100° C. for 1 min. Samples were incubated in liquid nitrogen for 1 min and thawed at room temperature two times. They were let for 1 h at −20° C. and centrifuged at 4° C. during 15 min at 13,000 g. Supernatants were transferred in HPLC vials and injected in HPLC/MS or kept at −80° C. until injection. For in vivo experiments, frozen tissues were placed in ice-cold homogenization tubes containing ceramic beads. Five μL of ice-cold methanol/water (80/20; v/v) were added for 1 mg of tissue. Tissues were homogenized two times for 20 s at 5,500 rpm using Precellys 24 tissue homogenator (Bertin Technologies, Montigny-le-Bretonneux, France). Samples were placed 10 min on ice. Next they were centrifuged at 4° C. during 15 min at 13,000 g. Supernatants were transferred in HPLC vials and injected in HPLC-MS system or kept at −80° C. until injection.
Targeted analyses were performed on Rapid Resolution Liquid Chromatography (RRLC) 1200SL system (Agilent Technologies, Waldbronn, Germany) coupled to a Triple Quadruple QQQ 6410 mass spectrometer (Agilent Technologies). RRLC analysis was done on 150×2.1 mm, 3.5 μm Eclipse Plus SB-Aq column with a pre-column 30 mm×2.1 mm 3.5 μm Eclipse plus (Agilent Technologies) with water containing 10 mmol/L of ammonium acetate and 0.01% of acetic acid in channel A and acetonitrile in channel B in gradient mode at a flow rate of 0.3 mL·min^−1: t=0 min 2% B; t=9 min 95% B; t=11 min 95% B; re-equilibration time of 3 min. Mass spectrometer analysis was done in positive electrospray ionization mode at +4 kV on the QQQ system operating in MRM mode. MRM transitions were optimized with standard of AcCoA and AcCoA A 2-C^13 with direct infusion. Two transitions were recorded for each compound; • AcCoA 810>303 CE (collision energy) 28V; fragmentor 180V • 810>428 CE 20V • AcCoA 2-C13 812>305 CE 28V; fragmentor 180V • 812>428 CE 24V […]

`O=C(O)C[C@]1(O)C[C@H](CCCCCCc2ccc(Cl)cc2Cl)OC1=O` (relative stereo) [SB-204990, (3R,5S)-rel-5-[6-(2,4-Dichlorophenyl)hexyl]tetrahydro-3-hydroxy-2-oxo-3-furanacetic acid] was tested, and the “autophagic flux (GFP-LC3 puncta formation, LC3 lipidation)” value (“autophagic flux” for short) [1] was “stimulated autophagic flux in cultured cancer cells”, the “autophagic flux” value ([1]; listed as SB204990) was “induce autophagic flux” and the “tumor growth, combined with MTX” value [2] was “HC could be replaced”. For the same molecule, the “tumor growth, combined with MTX” value ([2]; listed as SB204990) was “can enhance chemotherapy efficacy” and the “tumor growth, combined with MTX, immunodeficient mice” value ([2]; nu/nu (nude athymic) mice) was “failed”.

In the case of `CC1COC(=O)C1` (centres unmarked) [3-methylbutyrolactone], the “autophagic flux” value [1] was “marked increase in GFP-LC3 puncta”.

`COc1ccc(-c2ccccc2)cc1NS(=O)(=O)c1cc(Cl)cc(Cl)c1O` [BMS-303141, 3 5-Dichloro-2-hydroxy-N-(4-methoxy[1,1′-biphenyl]-3-yl)-benzenesulfonamide] was tested, and the “autophagic flux” value [1] was “stimulated autophagic flux in cultured cancer cells” and the “autophagic flux” value ([1]; listed as BMS303141) was “induce autophagic flux”.

In the case of `C1CCC(C(CC2CCCCN2)C2CCCCC2)CC1` (centres unmarked) [PHX, perhexiline], the AcCoA levels [3] was “reduced AcCoA cellular levels” and the “autophagic flux” value [1] was “induced signs of autophagy”.

For `CCCCCCCCCCCCCCCc1cccc(O)c1C(=O)O` [anacardic acid, 6-pentadecylsalicylic acid], the “autophagic flux” value [1] was “marked increase in GFP-LC3 puncta”.

In the case of `COc1cc(/C=C/C(=O)CC(=O)/C=C/c2ccc(O)c(OC)c2)ccc1O` [curcumin], the “autophagic flux” value [1] was “marked increase in GFP-LC3 puncta”.

With `CC(O)(CCO)CC(=O)O` (centres unmarked) [mevalonate] the “statin-induced autophagy upon supplementation” value [1] was “only suppresses statin-induced autophagy” and the “statin-induced autophagy upon supplementation” value ([1]; listed as Mevalonate) was “reverts statins-induced”.
